# Experimental data taken from a melting point compilation (Tetko et al.; mined from patent text by program, amines drawn as free bases though some values may be those of a salt).
# Residues, ends and D or L forms follow the SMILES beside them. *: point of attachment. Boc = CC(C)(C)OC(=O)*; Bn = c1ccc(C*)cc1
row,melting point,SMILES
1,162 to 166 °C,CCCCc1oc2ccccc2c1C(=O)NCc1ccc2c(-c3ccc(C)cc3)c(OCc3nnn[nH]3)ccc2c1
2,216 to 218 °C,CC(=O)N1CCn2nc(-c3ccc(F)cc3)c(-c3ccncc3)c2N1
3,146 to 150 °C,CCCCC(=O)Nc1ccc(Oc2ncc(Cl)cn2)c(C)c1
4,105 to 107 °C,CCCCCN1C(=O)C2(COc3cc4nc(C)sc4cc32)c2ccccc21 (stereo unspecified)
5,147 to 149 °C,CCc1csc2nc(C(=O)OC)cn12
6,192 to 194 °C,N#Cc1ccccc1-c1ccc(CN2C(=O)C3(COc4cc5c(cc43)CCO5)c3ccccc32)cc1 (stereo unspecified)
7,150 to 151 °C,CCOC(=O)C1=C(C)NC(C)=C(C(=O)OCC)C1c1ccc(F)cc1
8,203 to 205 °C,OCCOc1cccc(-c2n[nH]c3c2Cc2ccccc2-3)c1
9,75 to 76 °C,CCCCCCCCCCOc1ccc(-c2ccc(CCCCC(C)OC(C)=O)cc2)cc1 (stereo unspecified)
10,214 to 216 °C,CCC(=O)NCC=C1CCc2ccc3nc(C)oc3c21
11,188 °C,CC(=O)c1cccc(-c2ccc(Oc3ncccc3C(=O)O)cc2)c1
12,149 to 151 °C,CCOC(=O)CC[C@H](NC(=O)c1ccc(CNCc2cnc3nc(NC(=O)C(C)(C)C)nc(O)c3c2)cc1)C(=O)OCC
13,98 to 99 °C,CC1(COc2c(-c3ccc(S(C)(=O)=O)cc3)cnn(CC(F)(F)F)c2=O)CC1
14,179 to 181 °C,COc1cc(C)c2c(c1OC)CCC1C(=O)NC(=O)C21 (stereo unspecified)
15,228 to 230 °C,O=C1CCC(N2Cc3c(OCc4ccc(F)c(F)c4)cccc3C2=O)C(=O)N1 (stereo unspecified)
16,108 °C,CCc1nnc(-c2ccc(C)c(-c3ccc(F)cc3)n2)nc1CC
17,127 to 129 °C,COc1cc(NC(=O)Nc2ccccc2)ccn1
18,116 to 117 °C,CCc1cc(COc2nn(Cc3ccccc3)cc2CO)ccc1OCc1nc(-c2ccco2)oc1C
19,125 to 130 °C,O=C(Cc1ccc2ccccc2c1)N1CC=C(c2cccc(C(F)(F)F)c2)CC1
20,104 °C,CN1CCC(c2c[nH]c3ccc(NC(=O)C4CCC4)nc23)CC1
21,100 to 102 °C,COC1=C(OC)C(=O)C2=C(CC(CCCOc3ccc(C(=O)N(C)C)cc3)C2)C1=O
22,96 to 98 °C,O=C(NC1CCN(C(=O)CCCC2(C(=O)NCC(F)(F)F)c3ccccc3-c3ccccc32)CC1)c1ccccc1Oc1ccccc1
23,145 to 147 °C,COc1ccc2c3c(c(=O)oc2c1OC)CN(CC(C)=O)CC3

row,melting point,SMILES
1,171 to 174 °C,c1ccc2c(c1)CC1(c3c[nH]cn3)CCCC21 (stereo unspecified)
2,168 to 169 °C,COCCc1nc2c(N)nc3cc(OCCn4cccc4)ccc3c2n1CC(C)(C)O
3,205 °C,Cn1cc(C#N)c(Nc2ccc(Cl)cc2[N+](=O)[O-])n1
4,265 to 266 °C,O=C1CCC(c2ccc(-c3nccs3)cc2)=NN1
5,173 to 175 °C,COC[C@@H]1Cc2ccccc2N1S(=O)(=O)c1ccc2c(c1)C(=O)C1=NCC(C)(C)CN12
6,177 to 179 °C,CCc1cc(NCc2ccc(-c3ccccc3-c3nnn[nH]3)cc2)n2nccc2n1
7,138 to 140 °C,CC(=O)NCC1CN(c2ccc(N3CCC(=CC#N)C(F)C3)c(F)c2)C(=O)O1 (stereo unspecified)
8,130 to 132 °C,CCc1n[nH]c(CC)c1CCCCCCOc1ccc([N+](=O)[O-])cc1Cl
9,59 to 60 °C,CC(C)CCC1C(=O)N(CCl)S(=O)(=O)N1C (stereo unspecified)
10,102 to 105 °C,CCCc1c(OCCCOC2CC(CC(=O)O)Oc3ccccc32)ccc(C(C)=O)c1O (stereo unspecified)
11,60.6 °C,OCC(O)Cc1ccc(Br)cc1 (stereo unspecified)
12,191 to 194 °C,CCCS(=O)(=O)NNC(=O)NNS(=O)(=O)CCC
13,173 to 175 °C,O=C(Oc1cc(F)ccc1Br)c1cc2ccccc2oc1=O
14,105 °C,COc1ccc(Cl)c(Oc2c(CO)nc(N3CCOCC3)nc2NS(=O)(=O)c2ccc(C(C)C)cn2)c1
15,81 to 86 °C,CC(C)CC(NC(=O)C(Cc1c[nH]cn1)NC(=O)C(CC(=O)NCCc1ccccc1)Cc1cccc2ccccc12)C(O)C(=O)OCc1ccccc1 (mixture of isomers)
16,148 to 150 °C,N#Cc1ccccc1N1CCN(CNC(=O)c2ccccc2)CC1
17,136 to 137 °C,CC(=O)ON=C(c1ccccc1)c1cc(C(C)(C)C)c(O)c(C(C)(C)C)c1
18,230 to 233 °C,COC(=O)c1[nH]c2ccc(C)cc2c1Sc1ccc(Cl)cc1
19,211 to 214 °C,COc1cc2c(cc1O)c(-c1cc3cccnc3n1S(=O)(=O)c1ccc(C)cc1)cn2C
20,130 to 131 °C,Cc1cc(Cl)ccc1N=c1ssnc1Cl
21,37 to 38 °C,Cc1c(Cl)n(C)n(C)c1=O
22,51 to 52 °C,CCCCCCC1=C(O)C(=O)CO1
23,64 to 65 °C,CCOC(=O)c1c(C(F)(F)F)nsc1SC

row,melting point,SMILES
1,> 300 °C,Cc1nc(C)c(-c2[nH]nc3c2C(=O)c2c(NC(=O)NN4CCOCC4)cccc2-3)s1
2,192 to 194 °C,CC(C)OC(=O)CSc1ncnc2c(O)n(C)nc12
3,138 to 140 °C,COc1ccc(N(CCCC(=O)O)C(=O)CCN(C(=O)c2ccc(Cl)cc2)c2c(C)cccc2C)cc1
4,68 to 70 °C,CN(C)CCCCC(=O)N1CCC(c2[nH]nc3c2C(=O)c2c(NC(=O)NN4CCOCC4)cccc2-3)CC1
5,175 °C,CSc1ccc(-c2nc(SC)ccc2-c2ccc(S(C)(=O)=O)cc2)cc1
6,89 °C,C[C@H](NP(=O)(Cc1ccccc1)Cc1ccccc1)C(=O)N1CCC[C@H]1C(=O)N1CCC[C@H]1C(N)=O
7,> 300 °C,Cn1ncc2[nH]c3ccc(Cc4cccc(C(=O)O)c4)cc3c(=O)c21
8,156 to 159 °C,CC(C)=NOc1nc(C(F)(F)F)cc(=O)n1-c1cc(Oc2ccccc2[N+](=O)[O-])c(Cl)cc1F
9,210 °C,COc1c(C)cc2c(c1C)Cc1c-2[nH]c2c(C)cc(C)cc12
10,96 °C,Cc1ccc(Sc2ncnc3ccccc23)cc1
11,194 to 195 °C,Cc1c(Cc2cccnc2)sc2ccc(C(N)=O)cc12
12,192 to 193 °C,CCCCOC(=O)c1cccc2nc(CCCC)n(Cc3ccc(-c4ccccc4-c4nnn[nH]4)cc3)c12
13,174 to 175 °C,Cc1ccccc1N1CCN(S(=O)(=O)CC23CCC(CC2=NO)C3(C)C)CC1 (stereo unspecified)
14,155 to 156 °C,CCOC(=O)c1cc2c3ccccc3n(Cc3ccccc3)c2nc1N1CCCCC1
15,244 to 246 °C,Cc1nc2c(c3c1[nH]c1cc(F)ccc13)C(=O)CC(C)(C)C2
16,120 to 122 °C,CC(=O)NC(CSC(=O)c1ccccc1OC(C)=O)C(=O)O (stereo unspecified)
17,119 to 121 °C,CN(C)C(=O)Nc1cc(Br)ccc1N1CCc2ccccc21
18,377 to 378 °C,O=c1c2ccc(Cl)cc2[nH]c2c(=O)n(CCO)nc(O)c12
19,50 °C,CON(C)S(=O)(=O)c1ccccc1N
20,156 to 158 °C,O=C(NNS(=O)(=O)c1ccccc1)c1ccc2c(c1)OCO2
21,65 to 70 °C,COC1(OCc2ccccc2)C=C2C(=CC1)CCN(CCO)C2C1(c2ccccc2Cl)CC1 (stereo unspecified)
22,86 to 87 °C,COC(=O)C12OC1(Cc1ccc(Cl)cc1)CCC2(C)C (stereo unspecified)
23,188 to 190 °C,O=C(c1ccc(F)cc1)C1CCN(CC2CC(c3ccc4[nH]c(=O)oc4c3)=NO2)CC1 (stereo unspecified)

row,melting point,SMILES
1,81 °C,COC(=O)N1CCCC2(Cc3ccc(Br)cc3)C(=O)N(c3cc(Cl)nc(Cl)c3)C(=O)N12 (stereo unspecified)
2,130 to 143 °C,CCCCc1nc2cc(CO)ccc2n1Cc1ccc(-c2ccccc2C(=O)O)cc1
3,208 to 211 °C,Cc1cc(Nc2ncnc3ccc(-n4ccnc4)cc23)ccc1OCc1ccccn1
4,130 to 131 °C,COC(=O)C(Cc1ccc(OCc2ccccc2)cc1)NC(=O)C(COCc1ccccc1)NC(=O)C(Cc1c[nH]c2ccccc12)NC(=O)OC(C)(C)C (stereo not drawn) (Boc-Trp-Ser(Bn)-Tyr(Bn)-OMe; configuration not given here)
5,105 to 106 °C,C=CCCCCCCCCC(O)CNC(=O)N(C)O (stereo unspecified)
6,175 to 178 °C,COc1cc2c(cn1)CCCC2=NO
7,105 °C,CCCCCCCNC(=O)N(C)c1cccc(-c2ccc(CC(Nc3ccccc3C(=O)c3ccccc3)C(=O)O)cc2)c1 (stereo unspecified)
8,174 to 176 °C,CC1c2cc(F)ccc2CCN1C(=O)c1cc2ncc(Br)cn2n1 (stereo unspecified)
9,174 to 177 °C,NC[C@@H]1CN(c2nc3c(cc2F)c(=O)c(C(=O)O)cn3C2CC2)C[C@@H]1Cl (relative stereo)
10,179 to 180 °C,CC(c1ccc(F)cc1)N1CCC(n2cnc3ccccc3c2=O)CC1 (stereo unspecified)
11,215 to 218 °C,COc1ccc(C2C(C#N)=C(N)Oc3c2ccc2cnccc32)cc1OC (stereo unspecified)
12,220 °C,O=C(Nc1ccc2[nH]ncc2c1)O[C@@H](c1cc(F)cc(Cl)c1)[C@H]1CCCCN1
13,219 to 220 °C,O=C(O)c1cnc(-c2ccccc2OCC2CC2)[nH]c1=O
14,254 to 258 °C,CCC1Cn2c(ncc(-c3nnn[nH]3)c2=O)-c2ccccc21 (stereo unspecified)
15,90 to 93 °C,O=C(O)c1cc([N+](=O)[O-])cc2c1Nc1ccc(CCCc3ccc(Cl)c(Cl)c3)cc1O2
16,143 to 144 °C,Cc1cccc(-c2nc3cccnn3c2-c2ccnc(NCCN3CCCCC3)c2)c1
17,274 to 275 °C,Cc1cc2c(s1)Oc1ccc(F)cc1NC2=O
18,108 °C,Cc1ccc(Cn2nc(Br)c([N+](=O)[O-])c2NCc2ccccc2)cc1
19,117 to 119 °C,S=C(Nc1cccc(Cl)c1)N1CCOC1C1CCCCC1 (stereo unspecified)
20,107 to 108 °C,COc1cc(C(C)O)c([N+](=O)[O-])cc1OC (stereo unspecified)
21,209 to 210 °C,CCCCc1nc(Cl)c(C(=O)O)n1Cc1ccc2oc(-c3ccccc3-c3nnn[nH]3)cc2c1
22,130 °C,C=CCOC(=O)C1=C(C)NC(C)=C(C(=O)OC)C1c1ccccc1F (stereo unspecified)

row,SMILES,melting point
1,COC(=O)COc1cc2c(c3c1c(C(=O)C(N)=O)c(C)n3Cc1ccc(F)cc1)CCC2,134 to 136 °C
2,CN1CCN=C1C(Br)(Br)[N+](=O)[O-],88 to 90 °C
3,CN(C)C(C#N)C1(c2ccc(Cl)cc2)CCC1 (stereo unspecified),90 to 91 °C
4,Cc1nnc2n1-c1ccc(C#CCn3ncc4ccccc43)cc1C(c1ccccc1F)=NC2,148 to 151 °C
5,COC(=O)C1c2ccccc2C2C(=O)NCCN21 (stereo unspecified),165 to 167 °C
